Five compounds from US20220220152A1, “BIVALENT ANTAGONISTS OF INHIBITORS OF APOPTOSIS PROTEINS” (Hepagene Therapeutics (HK) Limited, priority 2019, published 2022) can be followed below.

One test deals with T1, XIAP-BIR3 (Homo sapiens, UniProt P98170).
T1 construct: XIAP-BIR3; purchased Reaction Biology APT-11-374
The test can be described thus: XIAP-BIR3 fluorescence polarization binding assay. The following applies: FP, probe AbuRPFK-5FAM (SM5F) 5 nM, XIAP-BIR3 40 nM, 60 min at 25° C. In a few lines: (§1)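 Fluorescence polarization competition using 5-carboxyfluorescein-labelled peptide probe AbuRPFK-5FAM; protein and compound preincubated 15 min, probe added, then 60 min at 25° C.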

The target of a further test is T2, cIAP1-BIR3 (Homo sapiens, UniProt Q13490).
T2 construct: cIAP1-BIR3; purchased Reaction Biology APT-11-370
T2 sequence (Q13490 253-363 limits assumed): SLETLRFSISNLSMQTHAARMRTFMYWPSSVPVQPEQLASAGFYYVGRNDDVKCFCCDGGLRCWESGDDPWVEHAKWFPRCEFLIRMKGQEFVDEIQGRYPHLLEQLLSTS
The test can be described thus: cIAP1-BIR3 fluorescence polarization binding assay. Particulars: FP, probe AbuRPFK-5FAM (SM5F) 5 nM, cIAP1-BIR3 15 nM, 60 min at 25° C. In a few lines:
as §1

The target in another test is T3, cIAP2-BIR3 (Homo sapiens, UniProt Q13489).
T3 construct: cIAP2-BIR3; purchased Reaction Biology APT-11-372
T3 sequence (Q13489 238-349 limits assumed): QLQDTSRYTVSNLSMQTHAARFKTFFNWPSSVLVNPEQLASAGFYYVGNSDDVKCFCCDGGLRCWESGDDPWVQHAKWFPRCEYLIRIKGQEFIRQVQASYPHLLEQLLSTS
The test can be described thus: cIAP2-BIR3 fluorescence polarization binding assay. Particulars: FP, probe AbuRPFK-5FAM (SM5F) 5 nM, cIAP2-BIR3 80 nM, 60 min at 25° C. In a few lines:
as §1

T1 sequence (P98170 241-356 limits assumed): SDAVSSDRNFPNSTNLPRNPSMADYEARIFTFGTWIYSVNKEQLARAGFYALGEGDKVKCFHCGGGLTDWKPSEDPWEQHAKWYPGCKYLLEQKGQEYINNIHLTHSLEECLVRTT

On to `CC[C@H](NC(=O)[C@H](C)NC)C(=O)N1CCC[C@H]1C(=O)N[C@@H]1CCCc2c(Nc3cccc4c3CCC[C@H]4NC(=O)[C@@H]3CCCN3C(=O)[C@H](CC)NC(=O)[C@H](C)NC)cccc21` [Compound VI-C, (2S,2'S)—N,N′-((1R,1′R)-azanediylbis(1,2,3,4-tetrahydronaphthalene-5,1-diyl))bis(1-((S)-2-((S)-2-(methylamino)propanamido)butanoyl)pyrrolidine-2-carboxamide)], for which the IC50 fell in the range of 10 to 100 nM at XIAP-BIR3, 1 to 10 nM at cIAP1-BIR3 and 10 to 100 nM at cIAP2-BIR3.
`CN[C@@H](C)C(=O)N[C@H](C(=O)N1CCC[C@H]1C(=O)N[C@@H]1CCCc2c(NC(=O)c3cccc4c3CCC[C@H]4NC(=O)[C@@H]3CCCN3C(=O)[C@@H](NC(=O)[C@H](C)NC)C3CCCCC3)cccc21)C1CCCCC1` [Compound VII, (S)-1-((S)-2-Cyclohexyl-2-((S)-2-(methylamino)propanamido)acetyl)-N—((R)-5-(((R)-5-((S)-1-((S)-2-cyclohexyl-2-((S)-2-(methylamino)propanamido)acetyl)pyrrolidine-2-carboxamido)-5,6,7,8-tetrahydronaphthalen-1-yl)carbamoyl)-1,2,3,4-tetrahydronaphthalen-1-yl)pyrrolidine-2-carboxamide]: the IC50 on XIAP-BIR3 is 10 to 100 nM; on cIAP1-BIR3 it was 1 to 10 nM; at cIAP2-BIR3, 1 to 10 nM.
Take `CN[C@@H](C)C(=O)N[C@H](C(=O)N1CCC[C@H]1C(=O)N[C@@H]1CCCc2c(NC(=O)c3cccc4c3CCC[C@H]4NC(=O)[C@@H]3CCCN3C(=O)[C@@H](NC(=O)[C@H](C)NC)C3CCOCC3)cccc21)C1CCOCC1` [Compound VII-B, (2S)-1[(2S)-2-[(2S)-2-(methylamino)propanamido]-2-(oxan-4-yl)acetyl]-N-[(1R)-5-[[(5R)-5-[(2S)-1[(2S)-2-[(2S)-2-(methylamino)propanamido]-2-(oxan-4-yl)acetyl]pyrrolidine-2-amido]-5,6,7,8-tetrahydronaphthalen-1-yl]carbamoyl]-1,2,3,4-tetrahydronaphthalen-1-yl]pyrrolidine-2-carboxamide]: the IC50 at XIAP-BIR3 lay in the range of 10 to 100 nM; on cIAP1-BIR3 it was 1 to 10 nM; on cIAP2-BIR3, 10 to 100 nM.
For `CC[C@H](NC(=O)[C@H](C)NC)C(=O)N1CCC[C@H]1C(=O)N[C@@H]1CCCc2c(NC(=O)c3cccc4c3CCC[C@H]4NC(=O)[C@@H]3CCCN3C(=O)[C@H](CC)NC(=O)[C@H](C)NC)cccc21` [Compound VII-C, (2S)-1-[(2S)-2-[(2S)-2-(methylamino)propanamido]butanoyl]-N-[(1R)-5-[[(5R)-5-[(2S)-1-[(2S)-2-[(2S)-2-(methylamino)propanamido]butanoyl]pyrrolidine-2-amido]-5,6,7,8-tetrahydmnaphthalen-1-yl]carbamoyl]-1,2,3,4-tetrahydmnaphthalen-1-yl]pyrrolidine-2-carboxamide], the IC50 at XIAP-BIR3 lay in the range of 10 to 100 nM; at cIAP1-BIR3, 1 to 10 nM; at cIAP2-BIR3 it was 10 to 100 nM.
Take `CN[C@@H](C)C(=O)N[C@H](C(=O)N1CCC[C@H]1C(=O)N[C@@H]1CCCc2c1cccc2N1CC2CN(c3cccc4c3CCC[C@H]4NC(=O)[C@@H]3CCCN3C(=O)[C@@H](NC(=O)[C@H](C)NC)C3CCCCC3)CC2C1)C1CCCCC1` (stereo partly drawn) [Compound VIII, (2S)-1-[(2S)-2-cyclohexyl-2-[(2S)-2-(methylamino)propanamido]acetyl]-N-[(1R)-5-[5-[(5R)-5-[(2S)-1-[(2S)-2-cyclohexyl-2-[(2S)-2-(methylamino)propanamido]acetyl]pyrrolidine-2-amido]-5,6,7,8-tetrahydronaphthalen-1-yl]-hexahydropyrrolo[3,4-c]pyrrol-2-yl]-1,2,3,4-tetrahydmnaphthalen-1-yl]pyrrolidine-2-carboxamide]: the IC50 on XIAP-BIR3 fell in the range of 10 to 100 nM; on cIAP1-BIR3 it was 1 to 10 nM; on cIAP2-BIR3, 1 to 10 nM.
